Reference: PMC9268516 (Molecules, 2022)

Assays:
H1N1 = conditions: cited from earlier work
chemokine co-receptor 5 = conditions: cited from earlier work
in vitro = conditions: Rhesus monkey
RAW 264.7 cells = conditions: cited from earlier work
influenza A/WSN/33 virus = conditions: cited from earlier work

Compound	IC50 (in vitro) [µg/mL]	melting point [°C]	also measured
CC(C)/C=c1\[nH]c(=O)/c(=C/c2ccc(O)cc2)[nH]c1=O [(3Z,6Z)-3-(4-hydroxybenzylidene)-6-isobutylidenepiperazine-2,5-dione, reference compound]			IC50 (H1N1): 6.8 ± 1.5 µM
CCCCN1C(=O)[C@@H]([C@H](O)C2CCCCC2)NC(=O)C12CCN(Cc1ccc(Oc3ccc(C(=O)O)cc3)cc1)CC2 [Aplaviroc]			binding affinity to chemokine co-receptor 5 (chemokine co-receptor 5): high binding affinity
C=CCn1c(=O)/c(=C/C(C)C)[nH]c(=O)/c1=C/c1ccccc1 [Compound 13b, (3Z,6Z)-4-Allyl-3-benzylidene-6-(2-methylpropylidene)-2,5-diketopiperazine]	> 128		
CC(C)=CCn1c(=O)/c(=C/C(C)C)[nH]c(=O)/c1=C/c1ccccc1 [Compound 13c, (3Z,6Z)-3-Benzylidene-6-(2-methylpropylidene)-4-(3-methylbut-2-en-1-yl)-2,5-diketopiperazine]	> 128	175 to 178	
CC(C)/C=c1/c(=O)[nH]/c(=C\c2ccccc2)c(=O)n1C [Compound 13d, (3Z,6Z)-3-Benzylidene-6-(2-methylpropylidene)-1-methyl-2,5-diketopiperazine]	> 128		
C=CCn1c(=O)/c(=C/c2ccccc2)[nH]c(=O)/c1=C/C(C)C [Compound 13e, (3Z,6Z)-1-Allyl-3-benzylidene-6-(2-methylpropylidene)-2,5-diketopiperazine]		115 to 119	
CC(C)/C=c1\[nH]c(=O)/c(=C/c2ccccc2)[nH]c1=O [Compound 13f, (3Z,6Z)-3-Benzylidene-6-(2-methylpropylidene)-2,5-diketopiperazine]		243 to 246	IC50 (H1N1): 41.5 ± 4.5 µM
CC(C)C=c1c(=O)[nH]c(=Cc2ccccc2)c(=O)n1CCN1CCCC1 [Compound 14c, (3Z,6E)-3-Benzylidene-6-(2-methylpropylidene)-1-(1-ethylpyrrolidine)-2,5-diketopiperazine]	> 128	158 to 162	
CC(C)/C=c1\c(=O)n(O)/c(=C/c2ccccc2)c(=O)n1C [LS-C, reference compound]	> 128		anti-inflammatory effect (RAW 264.7 cells): anti-inflammatory effect
CC(C)/C=c1\c(=O)[nH]/c(=C/c2ccccc2)c(=O)n1C [LS-D, reference compound]	> 128		anti-inflammatory effect (RAW 264.7 cells): anti-inflammatory effect
C=CC(C)(C)c1[nH]c2ccccc2c1/C=c1\[nH]c(=O)c(=C)[nH]c1=O [Neoechinulin B]			inhibitory rate (influenza A/WSN/33 virus): 70.48%
